According to US8252796B2, “1-butyl-2-hydroxyaralkyl piperazine derivatives and the uses as anti-depression medicine thereof” (CSPC Zhonggi Pharmaceutical Technology (Shijiazhuang) Co. …, priority 2008, dated 2012):

Assays:
[1] = target: T1, reuptake of [3H]DA by striatum synaptosomes (Rattus norvegicus, UniProt P23977); experiment: IC50 for inhibiting reuptake of [3H]DA by brain synaptosomes (Example 36); assay type: biochemical; settings: mean, n = 3~4
T1 construct: from tissue; host or cells: rat striatum synaptosomes
T1 sequence (P23977 whole entry): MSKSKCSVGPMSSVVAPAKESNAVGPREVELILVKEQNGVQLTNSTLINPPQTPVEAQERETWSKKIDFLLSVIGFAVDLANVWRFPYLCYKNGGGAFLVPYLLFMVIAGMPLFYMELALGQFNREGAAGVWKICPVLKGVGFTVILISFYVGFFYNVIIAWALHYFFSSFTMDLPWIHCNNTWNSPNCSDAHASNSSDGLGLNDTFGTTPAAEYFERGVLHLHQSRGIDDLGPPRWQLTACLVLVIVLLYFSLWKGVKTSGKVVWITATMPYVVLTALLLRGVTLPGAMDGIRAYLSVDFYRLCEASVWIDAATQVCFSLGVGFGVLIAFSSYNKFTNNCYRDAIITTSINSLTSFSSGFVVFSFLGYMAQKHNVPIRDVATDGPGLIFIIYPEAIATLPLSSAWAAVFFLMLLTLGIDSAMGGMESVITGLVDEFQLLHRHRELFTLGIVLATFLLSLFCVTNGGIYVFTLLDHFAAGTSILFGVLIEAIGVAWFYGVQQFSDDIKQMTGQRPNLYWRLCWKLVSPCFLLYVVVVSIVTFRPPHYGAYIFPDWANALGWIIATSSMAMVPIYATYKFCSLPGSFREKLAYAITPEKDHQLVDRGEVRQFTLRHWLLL
Experimental: (§1) Male SD rats were sacrificed by cervical dislocation and then the brains thereof were taken out rapidly by decollation and placed on ice. Related rain tissues (for [^3H]5-HT and [^3H]NA reuptake experiment, prefrontal cortex was taken; for [^3H]DA reuptake experiment, striatum was taken) were separated and weighed. 10 times (V/W) of 0.32 mol/L ice-cold sucrose solution was added and was homogenized electrically with glass-teflon. The homogenate was centrifugated at 4° C. at 1000 g×10 min. Then the supernatant was taken and centrifugated at 4° C. at 17000 g×20 min. The precipitation was suspended in 30 volume of KRH Buffer (125 mM NaCl, 4.8 mM KCl, 1.2 mM CaCl2, 1.2 mM MgSO4, 1.0 mM KH2PO4, 22 mM NaHCO3, 25 mM HEPES, 10 mM Glucose, 10 μM Pargyline, 0.2 mg/ml Ascorbic Acid) and then was preserved in an ice bath for use. (for NA reuptake experiment, the cortex needed was suspended in 20 volume of KRH Buffer)
(§2) 1. Preparation of Rat Brain Synaptosomes (the Same as Example 35)
(§3) The compounds were used for the studies on inhibition effect (IC50) on reuptake of [^3H]5-HT/NA/DA. At least 5 concentrations each time were settled for each test compound. Each concentration was determined by the average of double twin tubes and the test was repeated for more than 3 times. A series of concentrations of the compounds were prepared by gradient dilution before use. 50 μl thereof was added in total reaction system. Then 50 μl suspended synaptic membrane was added and mixed evenly, incubated in water bath at 37° C. for 30 min. Then 10 nmol/L [^3H] 5-HT (or 50 nmol/L [^3H]DA or 40 nmol/L [^3H]NA) was added and incubated in water bath at 37° C. for 10 min (for [^3H]NA, incubated for 5 min). For the [^3H]5-HT reuptake experiment, 50 μL of fluoxetine (100 μmol/L) was added to the non-specific binding tube; for the [^3H]DA reuptake experiment, 50 μL of cocaine (600 μmol/L) was added to the non-specific binding tube; for the [^3H]NA reuptake experiment, 50 μL of desipramine (100 μmol/L) was added to the non-specific binding tube; for the solvent control, solvent was added to the total binding tube, but no test compound added.
(§4) Sigmoidal curve fitting was performed for the data obtained from all of the test drugs by Origin 6.1, and the IC50 value was calculated.

[2] = target: T2, reuptake of NA by brain synaptosomes (prefrontal cortex) (Rattus norvegicus, UniProt Q9WTR4); experiment: Inhibition of [3H]NA reuptake by rat brain synaptosomes, single concentration (Example 35); assay type: biochemical; settings: test substance 10 μmol/L; inhibitory rate of 0.1 mM venlafaxine taken as 100%
T2 construct: from tissue; host or cells: rat prefrontal cortex synaptosomes
T2 sequence (Q9WTR4 1-597): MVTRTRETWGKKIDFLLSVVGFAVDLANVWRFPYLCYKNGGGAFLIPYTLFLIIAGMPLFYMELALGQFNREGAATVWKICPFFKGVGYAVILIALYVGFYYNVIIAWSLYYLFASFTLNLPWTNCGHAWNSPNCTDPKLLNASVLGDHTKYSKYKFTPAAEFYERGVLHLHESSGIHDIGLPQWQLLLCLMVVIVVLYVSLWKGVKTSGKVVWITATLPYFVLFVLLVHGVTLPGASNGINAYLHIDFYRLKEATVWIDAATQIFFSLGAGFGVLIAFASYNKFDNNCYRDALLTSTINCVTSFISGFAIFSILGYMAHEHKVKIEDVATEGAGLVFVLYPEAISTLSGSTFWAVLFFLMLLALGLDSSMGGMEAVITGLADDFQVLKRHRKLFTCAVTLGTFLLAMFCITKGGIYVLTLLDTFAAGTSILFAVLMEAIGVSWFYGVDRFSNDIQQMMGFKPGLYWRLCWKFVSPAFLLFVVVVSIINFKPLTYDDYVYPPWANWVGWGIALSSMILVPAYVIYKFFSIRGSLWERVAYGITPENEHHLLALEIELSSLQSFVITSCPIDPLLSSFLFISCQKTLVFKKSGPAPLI
Experimental: (§5) Studies on the reuptake of monoamine neurotransmitters by brain synaptosomes was performed, which is a currently important mean adopted in the worldwide in pharmacological studies of central nervous. This method can not only be used to study the action mechanism of a drug, but also be used for screening new drugs acting by this mechanism.
as §1
(§6) Stock solution of the test substance was thawed immediately before use and diluted with KBH Buffer to 100 μmol/L, 50 μl thereof was added in 500 μl of total reaction system, and the final concentration was 10 μmol/L. Then 50 μl suspended synaptic prepared above was added and mixed evenly, incubated in water bath for 30 min at 37° C. Then […] [^3H] 5-HT (50 nmol/L [^3H]DA or […] [^3H]NA) was added. After incubated at 37° C. for 10 min, the reaction system was immediately taken out and the reaction was stopped by adding 2 ml of ice-cold 150 mmol/L Tris-HCl buffer solution. The samples were collected on the circular fiberglass membrane by vacuum filtration, and the membrane was washed 3 times with 3 ml of ice-cold Tris-HCl buffer solution. The filtration membrane was removed, baked for 15 min in a far-infrared oven and placed into an EP tube. 1.5 ml scintillation fluid was added overnight and was tested by liquid scintillation counter. For the solvent control total binding tube and the non-specific binding tube, no test substance was added; for the total binding tube, 50 μl solvent was added.

[3] = Pharmacokinetics and bioavailability, single i.v. and oral administration in SD rat; assay type: in vivo; settings: for bioavailability: oral 50 mg/kg vs i.v. 10 mg/kg
Experimental: To study the pharmacokinetics parameters and the bioavailability of VIII-9, VIII-10 and SIPI5286 when single i.v. and oral administration in SD rat
Eighteen male rats were randomized into 6 groups and were administrated with the three compounds via i.v. and oral route, respectively. The dosage was 10 mg/kg (IV) and 50 mg/kg (PO). The test substance was dissolved in the solution of 5% DMSO/95% HP-β-CD aqueous solution (30%), and were administrated to the animal via i.v. and oral route. Blood plasma was collected at a serial of time points after i.v. and oral administration, and the blood drug concentrations were determined by LC/MS/MS. Then the pharmacokinetics parameters and the bioavailability were calculated based on the blood drug concentrations.

[4] = target: T3, reuptake of [3H]5-HT by prefrontal cortex synaptosomes (Rattus norvegicus, UniProt P31652); experiment: IC50 for inhibiting reuptake of [3H]5-HT by brain synaptosomes (Example 36); assay type: biochemical; settings: mean, n = 3~4
T3 construct: from tissue; host or cells: rat prefrontal cortex synaptosomes
T3 sequence (P31652 whole entry): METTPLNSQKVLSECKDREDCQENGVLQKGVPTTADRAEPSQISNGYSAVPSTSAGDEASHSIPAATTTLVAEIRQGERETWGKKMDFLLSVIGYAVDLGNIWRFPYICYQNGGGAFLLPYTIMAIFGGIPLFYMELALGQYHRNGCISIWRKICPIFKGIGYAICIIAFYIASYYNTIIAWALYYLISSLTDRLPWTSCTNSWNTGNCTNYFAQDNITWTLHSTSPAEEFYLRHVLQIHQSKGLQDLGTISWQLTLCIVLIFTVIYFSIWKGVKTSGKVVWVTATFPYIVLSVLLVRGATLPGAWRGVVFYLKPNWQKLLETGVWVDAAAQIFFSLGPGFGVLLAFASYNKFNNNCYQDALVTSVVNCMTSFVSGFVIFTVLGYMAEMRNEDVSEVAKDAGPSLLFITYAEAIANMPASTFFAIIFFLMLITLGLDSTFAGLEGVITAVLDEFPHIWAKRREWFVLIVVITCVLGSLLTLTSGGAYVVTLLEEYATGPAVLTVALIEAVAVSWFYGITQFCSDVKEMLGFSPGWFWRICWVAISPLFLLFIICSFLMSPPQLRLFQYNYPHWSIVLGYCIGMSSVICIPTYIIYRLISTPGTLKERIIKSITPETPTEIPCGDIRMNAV
Experimental: as §1, with “The precipitation was suspended in 30 volume of KRH Buffer (125 mM NaCl, 4.8 mM KCl, 1.2 mM CaCl2, 1.2 mM MgSO4, 1.0 mM KH2PO4, 22 mM NaHCO3, 25 mM HEPES, 10 mM Glucose, 10 μM Pargyline, 0.2 mg/ml Ascorbic Acid) and then was preserved in an ice bath for use.” left out
as §3, §4

[5] = target: T4, reuptake of DA by brain synaptosomes (striatum) (Rattus norvegicus, UniProt P23977); experiment: Inhibition of [3H]DA reuptake by rat brain synaptosomes, single concentration (Example 35); assay type: biochemical; settings: test substance 10 μmol/L; inhibitory rate of 0.1 mM 6-hydroxy DA taken as 100%
T4 construct: from tissue; host or cells: rat striatum synaptosomes
T4 sequence (P23977 whole entry): as the sequence (P23977 whole entry) above
Experimental: as §5, §1, §6

[6] = system: mice; experiment: Oral administration acute toxicity in mice; settings: for mortality (%) / number of died animals: 14 days
[7] = target: T5, reuptake of [3H]NA by prefrontal cortex synaptosomes (Rattus norvegicus, UniProt Q9WTR4); experiment: IC50 for inhibiting reuptake of [3H]NA by brain synaptosomes (Example 36); assay type: biochemical; settings: mean, n = 3~4
T5 construct: from tissue; host or cells: rat prefrontal cortex synaptosomes
T5 sequence (Q9WTR4 1-597): as the sequence (Q9WTR4 1-597) above
Experimental: as §1, §2, §3, §4

[8] = system: ICR mice; experiment: Mice Forced Swimming Test (in vivo antidepression activity); settings: for swimming test: immobility time: n = 12, mean±SD
[9] = target: T6, reuptake of 5-HT by brain synaptosomes (prefrontal cortex) (Rattus norvegicus, UniProt P31652); experiment: Inhibition of [3H]5-HT reuptake by rat brain synaptosomes, single concentration (Example 35); assay type: biochemical; settings: test substance 10 μmol/L; inhibitory rate of 0.1 mM venlafaxine taken as 100%
T6 construct: from tissue; host or cells: rat prefrontal cortex synaptosomes
T6 sequence (P31652 whole entry): as the sequence (P31652 whole entry) above
Experimental: as §5, §1, §6

[10] = target: T7, NE reuptake, Rat hypothalamus synaptosome (Rattus norvegicus, UniProt Q9WTR4); experiment: NE reuptake, optical isomers (Example 37); assay type: biochemical; settings: 20 min/37° C.
T7 construct: hypothalamus; from tissue; host or cells: rat hypothalamus synaptosomes
T7 sequence (Q9WTR4 1-597): as the sequence (Q9WTR4 1-597) above
Description: (§7) 3. Experiment Results (IC50 Value was Obtained by Nonlinear Regression Analysis of Inhibition Rate/Concentration Response Curve)

[11] = target: T8, 5-HT reuptake, Rat brain synaptosome (Rattus norvegicus, UniProt P31652); experiment: 5-HT reuptake, optical isomers (Example 37); assay type: biochemical; settings: 15 min/37° C.
T8 construct: Rat brain; from tissue; host or cells: rat brain synaptosomes
T8 sequence (P31652 whole entry): as the sequence (P31652 whole entry) above
Description: as §7

[12] = target: T9, DA reuptake, Rat striatum synaptosome (Rattus norvegicus, UniProt P23977); experiment: DA reuptake, optical isomers (Example 37); assay type: biochemical; settings: 15 min/37° C.
T9 construct: Rat striatum; from tissue; host or cells: rat striatum synaptosomes
T9 sequence (P23977 whole entry): as the sequence (P23977 whole entry) above
Description: as §7

[13] = one week oral administration, 10.4 mg/kg
[14] = one week oral administration, 17.3 mg/kg
[15] = one week oral administration, 28.8 mg/kg
[16] = one week oral administration, 48 mg/kg
[17] = single oral administration, 10.4 mg/kg
[18] = single oral administration, 17.3 mg/kg
[19] = single oral administration, 28.8 mg/kg
[20] = single oral administration, 48 mg/kg

Compound: CCCC[C@H]([C@@H](O)c1ccc2c(Cl)c(OC)ccc2c1)N1CCN(Cc2ccccc2)CC1 (racemic) [VIII-9, (1SR,2RS)-N^1-benzyl-N^4-[1-butyl-2-(5′-chloro-6′-methoxyl-2′-naphthyl)hydroxyethyl]piperazine]
- IC50 [1]: 2.1 nM
- inhibition on the reuptake of NA(%) [2]: 155.2%
- AUC (0-t) ([3]; i.v. 10 mg/kg): 4060.59 ng·h/mL
- half life (T½) ([3]; i.v. 10 mg/kg): 7.83 h
- Cmax ([3]; i.v. 10 mg/kg, (5 min)): 2640.94 ng/mL
- AUC (0-t) ([3]; oral 50 mg/kg): 3345.73 ng·h/mL
- Cmax ([3]; oral 50 mg/kg): 352.27 ng/mL
- Tmax ([3]; oral 50 mg/kg): 1.50 h
- half life (T½) ([3]; oral 50 mg/kg): 5.89 h
- bioavailability [3]: 16.32%
- IC50 [4]: 73.3 nM
- inhibition on the reuptake of DA(%) [5]: 117%
- mortality (%) ([6]; oral 507.8 mg/kg): 0%
- number of died animals ([6]; oral 507.8 mg/kg): 0
- mortality (%) ([6]; oral 781.2 mg/kg): 0%
- number of died animals ([6]; oral 781.2 mg/kg): 0
- mortality (%) ([6]; oral 1201.9 mg/kg): 0%
- number of died animals ([6]; oral 1201.9 mg/kg): 0
- mortality (%) ([6]; oral 1849.1 mg/kg): 0%
- number of died animals ([6]; oral 1849.1 mg/kg): 0
- mortality (%) ([6]; oral 2844.7 mg/kg): 0%
- number of died animals ([6]; oral 2844.7 mg/kg): 0
- IC50 [7]: 2.8 nM
- swimming test: immobility time [8, 13]: 93.4 ± 26.71 s
- swimming test: immobility time [8, 14]: 82.1 ± 44.06 s
- swimming test: immobility time [8, 15]: 87.2 ± 40.07 s
- swimming test: immobility time [8, 16]: 91.5 ± 58.14 s
- ED50 swimming test ([8]; single oral administration): 34.3 mg/kg
- swimming test: immobility time [8, 17]: 74.3 ± 46.63 s
- swimming test: immobility time [8, 18]: 119.4 ± 28.02 s
- swimming test: immobility time [8, 19]: 77.4 ± 53.81 s
- swimming test: immobility time [8, 20]: 104.3 ± 75.81 s
- Inhibition on the reuptake of 5-HT(%) [9]: 125%

Compound: CCCC[C@H]([C@H](O)c1ccc2c(Cl)c(OC)ccc2c1)N1CCN(Cc2ccccc2)CC1 (racemic) [VIII-10, (1SR,2SR)-N^1-benzyl-N^4-[1-butyl-2-(5′-chloro-6′-methoxyl-2′-naphthyl)hydroxyethyl]piperazine]
- IC50 [1]: 165 nM
- inhibition on the reuptake of NA(%) [2]: 145%
- AUC (0-t) ([3]; i.v. 10 mg/kg): 2932.05 ng·h/mL
- half life (T½) ([3]; i.v. 10 mg/kg): 9.06 h
- Cmax ([3]; i.v. 10 mg/kg, (5 min)): 2998.49 ng/mL
- AUC (0-t) ([3]; oral 50 mg/kg): 5552.24 ng·h/mL
- Cmax ([3]; oral 50 mg/kg): 727.20 ng/mL
- Tmax ([3]; oral 50 mg/kg): 1.67 h
- half life (T½) ([3]; oral 50 mg/kg): 16.41 h
- bioavailability [3]: 63.78%
- IC50 [4]: 272 nM
- inhibition on the reuptake of DA(%) [5]: 133%
- mortality (%) ([6]; oral 507.8 mg/kg): 0.00%
- number of died animals ([6]; oral 507.8 mg/kg): 0
- mortality (%) ([6]; oral 781.2 mg/kg): 33.3%
- number of died animals ([6]; oral 781.2 mg/kg): 2
- mortality (%) ([6]; oral 1201.9 mg/kg): 66.7%
- number of died animals ([6]; oral 1201.9 mg/kg): 4
- mortality (%) ([6]; oral 1849.1 mg/kg): 83.3%
- number of died animals ([6]; oral 1849.1 mg/kg): 5
- mortality (%) ([6]; oral 2844.7 mg/kg): 100%
- number of died animals ([6]; oral 2844.7 mg/kg): 6
- LD50 (95% confidential limit) ([6]; oral, male & female, Bliss method): 1048.5 (751.33˜1433.7) mg/kg
- IC50 [7]: 4730 nM
- swimming test: immobility time [8, 13]: 77.6 ± 24.69 s
- swimming test: immobility time [8, 14]: 78.2 ± 25.63 s
- swimming test: immobility time [8, 15]: 51.9 ± 51.23 s
- swimming test: immobility time [8, 16]: 68.3 ± 34.01 s
- ED50 swimming test ([8]; single oral administration): 11.8 mg/kg
- swimming test: immobility time [8, 17]: 81.8 ± 39.34 s
- swimming test: immobility time [8, 18]: 43.4 ± 35.41 s
- swimming test: immobility time [8, 19]: 40.8 ± 40.24 s
- swimming test: immobility time [8, 20]: 64.4 ± 43.01 s
- Inhibition on the reuptake of 5-HT(%) [9]: 136%

Compound: CCCCC(C(O)c1ccc2c(Cl)c(OC)ccc2c1)N1CCN(Cc2ccccc2)CC1 (single isomer, unassigned) [IX-23]
- IC50 [10]: 2100 nM
- IC50 [11]: 1900 nM
- IC50 [12]: 1000 nM

Compound: CCCCC(C(O)c1ccc2c(Cl)c(OC)ccc2c1)N1CCN(Cc2ccccc2)CC1 (single isomer, unassigned) [IX-24]
- IC50 [10]: 1400 nM
- IC50 [11]: 3100 nM
- IC50 [12]: 1100 nM

Compound: CCCCC(C(O)c1ccc2c(Cl)c(OC)ccc2c1)N1CCN(Cc2ccccc2)CC1 [IX-25, (1R,2S)-N^1-benzyl-N^4-[1-butyl-2-(5′-chloro-6′-methoxyl-2′-naphthyl)hydroxyethyl]piperazine]
- IC50 [10]: 140 nM
- IC50 [11]: 830 nM
- IC50 [12]: 670 nM

Compound: CCCCC(C(O)c1ccc2c(Cl)c(OC)ccc2c1)N1CCN(Cc2ccccc2)CC1 [IX-26, (1R,2R)-N^1-benzyl-N^4-[1-butyl-2-(5′-chloro-6′-methoxyl-2′-naphthyl)hydroxyethyl]piperazine]
- IC50 [10]: 1200 nM
- IC50 [11]: 1200 nM
- IC50 [12]: 1100 nM
